Measured values taken from US20240132431A1, “METHOD FOR ALKYLATING ACIDIC FUNCTIONAL GROUP” (Chugai Seiyaku Kabushiki Kaisha, priority 2021, published 2024).

Target: T1, Bcl-2 protein (Recombinant Human Bcl-2 Protein) (Homo sapiens, UniProt P10415)
T1 construct: purchased Novus NBP2-34889
Experiment: Binding evaluation of mixture library compounds to Bcl-2 using AS-MS (affinity selection mass spectrometry)
Settings: for ASMS ratio (%) n = 1 / ASMS ratio (%) n = 2: ASMS Ratio(%)=(A−C)/B×100; for ASMS ratio (%) n = 1: replicate n = 1; for ASMS ratio (%) n = 2: replicate n = 2
How it was run: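 Affinity selection MS: Bcl-2 20 μM + 1200-cpd mixture, […]/cpd, Tris pH 7.4 buffer w/ Tween-20, DTT; 1 h 23° C dark; P-2 spin SEC; MeCN/MeOH extraction; RP LC/MS. ASMS Ratio(%) = (A−C)/B×100.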

[1] = AS-MS, mixture of 1200 compounds, Bcl-2
[2] = AS-MS on the mixture of 1200 library compounds

T1 sequence (P10415 whole entry): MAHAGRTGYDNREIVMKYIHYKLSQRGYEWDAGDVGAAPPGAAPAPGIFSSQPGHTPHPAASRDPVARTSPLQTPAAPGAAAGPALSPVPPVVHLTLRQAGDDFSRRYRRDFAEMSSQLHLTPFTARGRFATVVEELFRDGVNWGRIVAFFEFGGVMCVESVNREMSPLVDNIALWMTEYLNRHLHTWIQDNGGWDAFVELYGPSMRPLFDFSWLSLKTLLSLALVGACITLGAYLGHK

Compound	ASMS ratio (%) (n = 1)	ASMS ratio (%) (n = 2)	ASMS ratio (%) n = 1 [1] [%]	ASMS ratio (%) n = 2 [1] [%]	also measured
CCOc1cccc(-c2ccc(CN3CCN(c4ccc(C(=O)NS(=O)(=O)c5ccc(NCCSc6ccccc6)c(C(F)(F)F)c5)cc4)CC3)cc2C)c1 [B2R047-01, 4-[4-[[4-(3-Ethoxyphenyl)-3-methylphenyl]methyl]piperazin-1-yl]-N-[4-(2-phenylsulfanylethylamino)-3-(trifluoromethyl)phenyl]sulfonylbenzamide]	6.6	−7.8	–	–	–
CCOc1cncc(C#Cc2cncc(C(=O)N3CCN(c4ccc(C(=O)NCC56CC7CC(CC(C7)C5)C6)cc4)CC3)c2)c1 [B1A032-01, N-(1-Adamantylmethyl)-4-[4-[5-[2-(5-ethoxypyridin-3-yl)ethynyl]pyridine-3-carbonyl]piperazin-1-yl]benzamide]	–	–	0.0	−9.1	–
4-[4-[[4-(5-Ethoxypyridin-3-yl)-2,6-dimethoxyphenyl]methyl]piperazin-1-yl]-N-propylbenzamide [B1M022-01]	–	–	−13.6	6.7	–
CCOc1cncc(-c2ccc(C(C)N3CCN(c4ccc(C(=O)NS(C)(=O)=O)cc4)CC3)c(F)c2)c1 (stereo not drawn) [B2I100-01, 4-[4-[1-[4-(5-Ethoxypyridin-3-yl)-2-fluorophenyl]ethyl]piperazin-1-yl]-N-methylsulfonylbenzamide]	0.0	0.0	–	–	–
CCOc1cncc(-c2ccc(CN3CCN(c4ccc(C(=O)NS(=O)(=O)c5ccc(NCCSc6ccccc6)c([N+](=O)[O-])c5)nn4)CC3)c3ccccc23)c1 [B2Q092-01]	–	–	–	–	ASMS ratio (%) n = 1 (AS-MS, mixture library, Bcl-2): 10.4%; ASMS ratio (%) n = 2 (AS-MS, mixture library, Bcl-2): 4.8%
CCOc1cccc(-c2ccc(CN3CCN(c4ccc(C(=O)NCC56CC7CC(CC(C7)C5)C6)cc4)CC3)c(CC)c2)c1 [B1A049-01, N-(1-Adamantylmethyl)-4-[4-[[4-(3-ethoxyphenyl)-2-ethylphenyl]methyl]piperazin-1-yl]benzamide]	–	–	4.1	−9.1	–
CCOc1cncc(C#Cc2cc(C(=O)N3CCN(c4ccc(C(=O)NCC(F)(F)F)nn4)CC3)cc(C(F)(F)F)c2)c1 [B1K020-01, 6-[4-[3-[2-(5-Ethoxypyridin-3-yl)ethynyl]-5-(trifluoromethyl)benzoyl]piperazin-1-yl]-N-(2,2,2-trifluoroethyl)pyridazine-3-carboxamide]	–	–	2.9	−3.8	–
CCOc1cccc(-c2ccccc2CCC(=O)N2CCN(c3ccc(C(=O)NCC45CC6CC(CC(C6)C4)C5)cc3)CC2)c1 [B1A033-01, N-(1-Adamantylmethyl)-4-[4-[3-[2-(3-ethoxyphenyl)phenyl]propanoyl]piperazin-1-yl]benzamide]	–	–	3.3	−13.3	–
CCOc1cncc(-c2ccccc2CN2CCN(c3ccc(C(=O)NS(=O)(=O)CCC(F)(F)F)nn3)CC2)c1 [B2N072-01]	0.0	0.1	–	–	–
CCOc1cncc(-c2cc(CN3CCN(c4ccc(C(=O)Nc5ccc(OC)cc5)cc4)CC3)cc(C(F)(F)F)c2)c1 [B1O062-01, 4-[4-[[3-(5-Ethoxypyridin-3-yl)-5-(trifluoromethyl)phenyl]methyl]piperazin-1-yl]-N-(4-methoxyphenyl)benzamide]	–	–	–	–	ASMS ratio (%) n = 1 [2]: 1.3%; ASMS ratio (%) n = 2 [2]: 4.6%
CCOc1cccc(C#Cc2ccccc2CN2CCN(c3ccc(C(=O)NS(=O)(=O)C(C)(C)C)nn3)CC2)c1 [B2L095-01, N-tert-Butylsulfonyl-6-[4-[[2-[2-(3-ethoxyphenyl)ethynyl]phenyl]methyl]piperazin-1-yl]pyridazine-3-carboxamide]	0.0	0.0	–	–	–
CCOc1cccc(C#Cc2cncc(C(=O)N3CCN(c4ccc(C(=O)N(C)CC56CC7CC(CC(C7)C5)C6)nn4)CC3)c2)c1 [B3A009-01, N-(1-Adamantylmethyl)-6-[4-[5-[2-(3-ethoxyphenyl)ethynyl]pyridine-3-carbonyl]piperazin-1-yl]-N-methylpyridazine-3-carboxamide]	–	–	–	–	ASMS ratio (%) n = 1 [2]: 0.6%; ASMS ratio (%) n = 2 [2]: −0.3%
